Source: patent US20050008715A1, “Method for preventing fungal growth in plants” (priority 2003, published 2005)
Marks after values point to notes of the source that are not given here.

Assays:
Assay type in all cases: cell-based
[1] = system: Phytophthora capsici; test: Mycelial growth from inoculum plugs in amended basal nutrient solution; conditions: 48 hours
Protocol: (§1) The efficacy of the garlic extract was tested against […] soil-borne fungi that cause root and lower stem rots of plants. The fungal pathogens included: Pythium aphanidermatum, Pythium irregular, Pythium ultimum, Phytophthora capsici, Phytophthora cinnamomi, Phytophthora nicotiana, Rhizoctonia solani, Fusarium oxysporum f.sp. lycopersici, Fusarium oxysporum f.sp. spinaciae, and Thielaviopsis basicola. All isolates used in this investigation were known to be pathogenic to various cultivated plant species.
(§2) All isolates of Pythium aphanidermatum, Pythium irregular, Pythum ultimum, Phytophthora capsici, Phytophthora cinnamomi, Phytophthora nicotiana, Rhizoctonia solani, Fusarium oxysporum f.sp. lycopersici, Fusarium oxysporum f.sp. spinaciae were grown on standard corn meal agar (CMA) for 8 to 9 days. Plugs from inoculum plates were taken using a #4 cork borer (5 mm diameter). Inoculum plugs were placed into 5-cm sterile plastic petri dishes containing 10 ml of a basal nutrient solution that consisted of 60% (v/v) clarified V-8 juice and sterile distilled water (SDW). Basal nutrient solutions were amended with the appropriate treatments. Treatments included SDW (non-treated control), a fungicidal agent appropriate to each species (metylaxyl for the Pythium and Phytophthora species, PCNB for Rhizoctonia, and Allegiance(r) for Fusarium), or 10%, 15%, 20%, 25%, or 30% (v/v) garlic extract. Cultures were placed into a growth chamber and maintained in the dark at 22(C(1(C. After 48 hours, mycelial growth (if any was visible) from culture plugs was measured.

[2] = system: Phytophthora cinnamomi; test: as above; conditions: 48 hours
Protocol: as §1, §2

[3] = system: Phytophthora nicotiana; test: as above; conditions: 48 hours
Protocol: as §1, §2

[4] = system: Pythium aphanidermatum; test: as above; conditions: 48 hours
Protocol: as §1, §2

[5] = system: Pythium irregular; test: as above; conditions: 48 hours
Protocol: as §1, §2

[6] = system: Pythium ultimum; test: as above; conditions: 48 hours
Protocol: as §1, §2

[7] = system: Pythium and Phytophthora species; test: Mycelial growth in amended basal nutrient solution; conditions: basal nutrient solution amended with metalaxyl
Protocol: as §1
as §2, with “Treatments included SDW (non-treated control), a fungicidal agent appropriate to each species (metylaxyl for the Pythium and Phytophthora species, PCNB for Rhizoctonia, and Allegiance(r) for Fusarium), or 10%, 15%, 20%, 25%, or 30% (v/v) garlic extract.” left out

[8] = system: Rhizoctonia solani; test: Mycelial growth from inoculum plugs in amended basal nutrient solution; conditions: for Growth of Rhizoctonia on amended basal nutrient solution: PCNB
Protocol: as §1, §2

[9] = Fungicide control (Metylaxyl) in basal nutrient solution
[10] = Fungicide control (Metylaxyl), from edge of inoculum plug

Row | SMILES | Plates with visible mycelial growth (%) [1, 9] | Measured growth (cm) [1, 10] | Plates with visible mycelial growth (%) [2, 9] | Measured growth (cm) [2, 10] | Plates with visible mycelial growth (%) [3, 9] | Measured growth (cm) [3, 10] | Plates with visible mycelial growth (%) [4, 9] | Measured growth (cm) [4, 10] | Plates with visible mycelial growth (%) [5, 9] | Measured growth (cm) [5, 10] | Plates with visible mycelial growth (%) [6, 9] | Measured growth (cm) [6, 10] | Pythium and Phytophthora species that grew from the inoculum plugs [7] | Plates with visible mycelial growth (%) ([8]; Fungicide control (PCNB) in basal nutrient solution, 48 hours) | Measured growth (cm) ([8]; Fungicide control (PCNB), 48 hours, from edge of inoculum plug) | Growth of Rhizoctonia on amended basal nutrient solution ([8]; first replication, inappropriate PCNB concentration) | Growth of Rhizoctonia on amended basal nutrient solution ([8]; second replication)
1 | COCC(=O)N(c1c(C)cccc1C)C(C)C(=O)OC (centres unmarked) [Metylaxyl] | 0% | 0 cm | 0% | 0 cm | 0% | 0 cm | 0% | 0 cm | 0% | 0 cm | 0% | 0 cm | none | – | – | – | –
2 | O=[N+]([O-])c1c(Cl)c(Cl)c(Cl)c(Cl)c1Cl [PCNB] | – | – | – | – | – | – | – | – | – | – | – | – | – | 50^x % | 0.3 cm | limited amount of growth | did not grow
